In patent US12686664B2, “SOCE inhibitors and therapeutic uses thereof” (Institut National de la Santé et de la Recherche Médicale …, priority 2020, dated 2026):
Values joined by “and” are separate entries in the source; they are usually repeats but may differ in a detail not shown here. Identical values can stand only once. Counter-ions that a name gives are not always drawn. Like-named read-outs stand apart in the source and are kept apart here.

Experiments:
Type in all cases: cell-based
[1] = tested on: store-operated Ca^2+ entry in PLP-B lymphocytes; assay: Store-operated Ca2+ entry after thapsigargin depletion of ER Ca2+ stores in PLP-B lymphocytes; conditions: for inhibition at 0.1 µM / inhibition at 1 µM / inhibition at 10 µM / inhibition at 50 µM / inhibition at 100 µM / Effect on amplitude of SOCE peak: PLP-B lymphocytes, % of inhibition (−) or activation; for IC50: SOCE in PLP-B lymphocytes, average of three assays, ±0.5 μM
Protocol: (§1) The effects of the molecules developed were tested on PLP-B lymphocytes. Store-operated Ca^2+ entry was induced by depletion of Endoplasmic Reticulum Ca^2+ stores (ER Ca^2+ stores) with thapsigargin (Tg) in a Ca^2+-free medium and measured following the addition of 1.8 mM of CaCl2) in the extracellular medium. The results are compared to the results obtained for known SOCE inhibitors SKF-96365, GSK-7975A, Synta 66.

[2] = tested on: store-operated Ca^2+ entry in HEK 293; assay: Store-operated Ca2+ entry in HEK 293 cell line; conditions: for Effect on amplitude of SOCE peak: % of inhibition (−) or activation
Protocol: as §1
(§2) Then, effects of the molecule that gave the best results in this test (i.e., molecule 6αa) were assessed in two cancer cell lines, namely: HEK 293 and HEK 651 HS1 tumor cell lines.

[3] = tested on: store-operated Ca^2+ entry in HEK 651 HS1; assay: Store-operated Ca2+ entry in HEK 651 HS1 cell line; conditions: for Effect on amplitude of SOCE peak: % of inhibition (−) or activation; for IC50: average of three assays, ±0.5 μM
Protocol: as §1, §2

[4] = tested on: SOCE in JOK B cells; assay: Intracellular calcium levels / SOCE in JOK B cells (Fura-2AM, FlexStation 3); conditions: for amplitude of SOCE: 5 and 20 μM, compared to control, irrespective of incubation time (5, 15, 30 minutes, 1 hour)
Protocol: Intracellular calcium levels were monitored at 37° C. using the FlexStation 3™ (Molecular Devices, Berkshire, UK), a fluorescence plate reader measuring time-resolved intracellular Ca^2+ concentration in a 96-well format with cells loaded with the dual-wavelength fluorescent calcium-sensitive dye Fura-2AM.
Intracellular Ca^2+ stores were depleted with 2 μM Thapsigargin (an inhibitor of ER SERCA pumps) under Ca^2+-free conditions to determine the magnitude of intracellular Ca^2+ release. Next, the cells were returned to Ca^2+-containing Hepes-buffered solution to measure SOCE. The magnitude of SOCE was estimated as the maximal values of normalized fluorescence ratio following Ca^2+ re-addition.

[5] = tested on: JOK cells; assay: JOK cell viability and apoptosis assays (LIVE/DEAD, Annexin V-FITC/PI); conditions: JOK B cells (FIG. 7); 5 or 20 μM; treated for 48 hours
Protocol: Cell Viability Assays. JOK cells were treated with test compounds (GSK-7975-A, SKF-93365 and 6αa) or solvent for 48 hours. JOK cells viability was then assessed using LIVE/DEAD cell viability assays kit (Abcam). Differentially labeled live and dead cells with fluorescent dyes are analyzed by flow cytometry.
Apoptosis Assay. Apoptosis of JOK cells were determined by Annexin V-FITC/PI staining (Biolegend) using flow cytometry. The percentage of annexin V-FITC and propidium iodide-[…] cells were assessed using Kaluza 1.3.

[6] = tested on: HUVEC cells; assay: HUVEC cell death (Annexin/Propidium Iodide, flow cytometry); conditions: HUVEC (FIG. 8); 5 or 20 μM; treated for 48 hours
Protocol: FIG. 8. In vitro Effects of 6αa, GSK-7975-A and SKF-93365 on HUVEC Cell Death. […] Cell death was analyzed by flow cytometry following Annexin/Propidium Iodide labeling. Percentages of living cells, necrotic cells and apoptotic cells submitted to GSK-7975A (A), SKF-93365 (B), and 6αa (DAD 3-473) (C) treatment were normalized to the DMSO treatment conditions. Histograms present the amounts of apoptotic cells (annexin/PI positive cells) detected in each experimental condition after treatment with GSK-7975A (D), SKF-93365 (E), and 6αa (DAD 3-473) (F). Data are expressed as mean±SEM of n observations (n=2). Data are analyzed with non parametric Mann Withney analysis, *P<0.05, **P<0.01 and ***P<0.001.

[7] = tested on: PANC-1 cells; assay: PANC-1 cytotoxicity (Cell Tox green assay); conditions: 5 and 20 μM, 24 hours
Protocol: Analysis of Cell Proliferation. For PANC-1 cell proliferation and cell cytotoxicity measurements, […] were seeded in 96 well-plates in 100 μL of DMEM medium. Cells were incubated for 24 hours at 37° C. with 3 different SOCE inhibitors (GSK-7975-A, SKF-93365 and 6αa) at 2 different concentrations (5 and 20 μM) compared to DMSO and untreated cells. Cell proliferation was evaluated using the Cell Titer kit proliferation assay (Promega). Cytotoxicity was evaluated using the Cell Tox green cytotoxicity assay (Promega). All the kits were used following manufacturer recommendations and using a plate reader.

[8] = tested on: JOK cells; assay: Migration of JOK cells through HUVEC in transwells; conditions: 5 or 20 μM
Protocol: Migration Protocol. Migration chambers (transwells) (Transwell 5.0 m polycarbonate membrane Costar) were coated overnight (37° C., 5% CO2) with 100 μL of fibronectine solution containing BSA (1 mg/ml) and LHC Basal Medium. Primary HUmbilical Vein Endothelial Cells (HUVEC) were seeded in each transwell (100 000/well) and cultured for 24 hours (37° C., 5% CO2). To evaluate B cell migration, JOK cells were added (300 000/well) to each transwell upper chamber containing RPMI 1640 medium (BioWest) containing 0.5% BSA and SDF1 (200 ng/ml) was added in the bottom chamber. Cells were cultures in the presence or absence of a test compound (GSK-7975-A, SKF-93365 and 6αa) or solvent. After 24 hours (37° C., 5% CO2), migrated cells were collected in the bottom chambers and counted by flow cytometry. The percentages of migration were calculated for each experimental collection.

[9] = Lymphocyte, 10 μM, DMSO control 100%, read-out: Effect on amplitude of SOCE Peak
[10] = Lymphocyte, 10 μM, thapsigargin (Tg) peak, read-out: Effect on amplitude of Tg Peak
[11] = Lymphocyte, 50 μM, DMSO control 100%, read-out: Effect on amplitude of SOCE Peak
[12] = Lymphocyte, 50 μM, thapsigargin (Tg) peak, read-out: Effect on amplitude of Tg Peak
[13] = Lymphocyte, 100 μM, DMSO control 100%, read-out: Effect on amplitude of SOCE Peak
[14] = Lymphocyte, 100 μM, thapsigargin (Tg) peak, read-out: Effect on amplitude of Tg Peak

In the case of COc1ccc(CCCOC(Cn2ccnc2)c2ccc(OC)cc2)cc1 (stereo not drawn) [SKF-96365], the inhibition at 0.1 µM ([1]; Lymphocyte, DMSO control 100%, read-out: Effect on amplitude of SOCE Peak) is reported as 3.4%, the inhibition at 0.1 µM ([1]; Lymphocyte, thapsigargin (Tg) peak, read-out: Effect on amplitude of Tg Peak) is reported as -2.4% and the inhibition at 1 µM ([1]; Lymphocyte, 1 μM, DMSO control 100%, read-out: Effect on amplitude of SOCE Peak) is reported as 26.4%. It also gave an inhibition at 1 µM ([1]; Lymphocyte, 1 μM, thapsigargin (Tg) peak, read-out: Effect on amplitude of Tg Peak) of -6.5%, an inhibition at 10 µM [1, 9] of 15.4% and an inhibition at 10 µM [1, 10] of 6.6%. It also gave an inhibition at 50 µM [1, 11] of 44.3%, an inhibition at 50 µM [1, 12] of 11.1% and an inhibition at 100 µM [1, 13] of 58.7%. For the same compound, the inhibition at 100 µM [1, 14] was 8%, the IC50 ([1]; Lymphocyte) was 60 µM and the “Effect on amplitude of SOCE peak” value ([2]; 0.1 μM) was −25%. For the same compound, the “Effect on amplitude of SOCE peak” value ([2]; 1 μM) was −21%, the “Effect on amplitude of SOCE peak” value ([2]; 5 μM) was −23% and the “Effect on amplitude of SOCE peak” value ([2]; 10 μM) was −4%. For the same compound, the “Effect on amplitude of SOCE peak” value ([2]; 50 μM) was −33%, the “Effect on amplitude of SOCE peak” value ([3]; 0.1 μM) was −8% and the “Effect on amplitude of SOCE peak” value ([3]; 1 μM) was −6%. For the same compound, the “Effect on amplitude of SOCE peak” value ([3]; 5 μM) was −9%, the “Effect on amplitude of SOCE peak” value ([3]; 10 μM) was −17% and the “Effect on amplitude of SOCE peak” value ([3]; 50 μM) was −63%. The IC50 [3] was 40 µM, the “amplitude of Ca2+ release from the endoplasmic stores” value [4] was “not found to be significantly affected” and the “amplitude of SOCE” value [4] was “significantly reduces”. For the same compound, the “apoptosis or necrosis of cells” value [5] was “do not induce apoptosis or necrosis”, the “apoptosis or necrosis of cells” value [6] was “do not induce apoptosis or necrosis” and the “cytotoxicity in cancer PANC-1 cells” value [7] was “no cytotoxic effects”.

In the case of O=C(Nc1ccn(Cc2ccc(O)cc2C(F)(F)F)n1)c1c(F)cccc1F [GSK-7975A], the “Effect on amplitude of SOCE peak” value ([1]; 1 μM, DMSO control 100%) is reported as 19.0% and 9.0%, the “Effect on amplitude of SOCE peak” value ([1]; 10 μM, DMSO control 100%) is reported as −9.0% and the “Effect on amplitude of SOCE peak” value ([1]; 50 μM, DMSO control 100%) is reported as −88.0%. For the same compound, the “Effect on amplitude of SOCE peak” value ([1]; 100 μM, DMSO control 100%) was −94.0%, the IC50 [1] was 2.3 µM and the “Effect on amplitude of SOCE peak” value ([2]; 0.1 μM) was −7%. For the same compound, the “Effect on amplitude of SOCE peak” value ([2]; 1 μM) was −31%, the “Effect on amplitude of SOCE peak” value ([2]; 5 μM) was −66% and the “Effect on amplitude of SOCE peak” value ([2]; 10 μM) was −75%. For the same compound, the “Effect on amplitude of SOCE peak” value ([2]; 50 μM) was −87%, the IC50 ([2]; average of three assays, ±0.5 μM) was 2 µM and the “Effect on amplitude of SOCE peak” value ([3]; 0.1 μM) was 0%. For the same compound, the “Effect on amplitude of SOCE peak” value ([3]; 1 μM) was −2%, the “Effect on amplitude of SOCE peak” value ([3]; 5 μM) was −19% and the “Effect on amplitude of SOCE peak” value ([3]; 10 μM) was −22%. For the same compound, the “Effect on amplitude of SOCE peak” value ([3]; 50 μM) was −72%, the IC50 [3] was 44 µM and the “amplitude of Ca2+ release from the endoplasmic stores” value [4] was “not found to be significantly affected”. The “amplitude of SOCE” value [4] was “significantly reduces”, the “apoptosis or necrosis of cells” value [5] was “do not induce apoptosis or necrosis” and the “apoptosis or necrosis of cells” value [6] was “do not induce apoptosis or necrosis”. For the same compound, the “transendothelial migration through HUVEC of JOK cells” value [8] was “does not” and the “cytotoxicity in cancer PANC-1 cells” value [7] was “no cytotoxic effects”.

COc1ccc(CCCOc2ccc(CCn3ncc4ccccc43)cc2)cc1 [6αaa DAD 4-574] was tested, and the inhibition at 10 µM [1, 9] was 10.4%, the inhibition at 10 µM [1, 10] was 23.1% and the inhibition at 50 µM [1, 11] was 16.4%. It also gave an inhibition at 50 µM [1, 12] of 13.3%, an inhibition at 100 µM [1, 13] of 31.6% and an inhibition at 100 µM [1, 14] of 19.7%.

In the case of Oc1ccc(CCOc2ccc(CCn3cnc4cc(F)ccc43)cc2)cc1 [12αc, 5-Fluoro-1-(4-(4-hydroxyphenethoxy)phenethyl)-1H-benzo[d]imidazol hydrochloride], the inhibition at 10 µM [1, 9] is reported as -20%, the inhibition at 10 µM [1, 10] is reported as -11% and the inhibition at 50 µM [1, 11] is reported as -3%. For the same compound, the inhibition at 50 µM [1, 12] was -2%, the inhibition at 100 µM [1, 13] was -1% and the inhibition at 100 µM [1, 14] was -5%.

For c1ccc(OCCOc2ccc(CCn3cnc4ccccc43)cc2)cc1 [6αae DAD 4-569], the inhibition at 10 µM [1, 9] was -7.5%, the inhibition at 10 µM [1, 10] was 11.3% and the inhibition at 50 µM [1, 11] was -13.1%. It also gave an inhibition at 50 µM [1, 12] of 7.6%, an inhibition at 100 µM [1, 13] of 12.4% and an inhibition at 100 µM [1, 14] of 12%.

For c1ccc(CCOc2ccc(CCn3cnc4ccccc43)cc2)cc1 [6αab DAD 4-553], the inhibition at 50 µM [1, 11] was 2%, the inhibition at 50 µM [1, 12] was 1% and the inhibition at 100 µM [1, 13] was 46%. It also gave an inhibition at 100 µM [1, 14] of 8%.
